Entries after “also recorded” stand apart in the source; their conditions may differ.
Columns and labels:
neuropathic pain models = details: in vivo; cited from earlier work
[1] = tested on: rat GABAB receptor (GABAB1a/GABAB2); assay type: cell-based
GABAB receptor [2] = details: cited from earlier work
human α9α10 nAChR = details: cited from earlier work
GABAB receptor [3] = details: cited from earlier work; remark: listed apart in the source
N-type calcium channels = details: cited from earlier work
[4] = tested on: N-type calcium channels in dorsal root ganglion neurons; details: cited from earlier work
[5] = tested on: rat GABAB receptor (GABAB1/GABAB2); assay type: binding

Vc1.1
Analgesic effect (neuropathic pain models): analgesic activity in several models of neuropathic pain | GABABR activation (BRET change) [1]: do not activate GABABRs expressed in HEK cells; also recorded: no effect; also recorded: neither Vc1.1 nor any of the examined conotoxins activated the GABABR | Competition with CGP54626 (GABAB receptor [2]): did not compete for binding | Potency human vs. rat α9α10 nAChR (human α9α10 nAChR): much less potent at the human vs. rat α9α10 nAChR | Competition with [3H]CGP54626 (GABAB receptor [3]): did not compete for binding with [3H]CGP54626 | N-type calcium channel block in α9 KO neurons (N-type calcium channels): block N-type calcium channels in cultured neurons from α9 KO mice | Block of N-type calcium channels [4]: blocks N-type calcium channels in dorsal root ganglion; also recorded: block N-type calcium channels in DRG neurons | Effect of G-protein signalling inhibition on N-type channel block [4]: block of N-type calcium channels was eliminated by pertussis toxin, intracellular GDPβS, or an inhibitor of pp60c-src tyrosine kinase | Displacement of CGP54626-Red [5]: No displacement; also recorded: None of these conotoxins prevented the binding of the competitive orthosteric antagonist CGP54626-Red
